Paper PMC9981206 (Cancer Research Communications, 2022)

Assays:
OVCAR-4 cells = test: MTS colorimetric cell growth assay, OVCAR-4; type: cell-based, human
From the text: (§1) The cell cultures were kept below 20 passages (∼10 weeks) and routinely monitored (upon thawing and monthly) for Mycoplasma infections with MycoAlert Mycoplasma Detection Kit (Lonza). All cell lines were authenticated by short tandem repeat profiling to confirm their identity (Eurofins). TNKS1/2 and PARP1 biochemical assays ([27, 32]), luciferase-based WNT/β-catenin signaling pathway reporter assay ([22, 27, 32]), anti-proliferative assays, and NCI-60 tumor cell line panel screen ([7]), immunoblot analyses ([7, 32, 39]), RNA isolation, and real-time qRT-PCR ([7, 27, 39, 40]) were performed as previously described.
(§2) Prostate (Pro) and central nervous system (CNS). […] Mean ± SD values for data from one representative experiment of more than three repeated assays, each with six replicates, are shown. C, Evaluation of WNT/β-catenin signaling. Left, immunoblots of cytoplasmic AXIN1 and nuclear active form of β-catenin [non-phospho (Ser33/37/Thr41)] and total β-catenin. Lamin B1 loading controls are duplicated for OVCAR-4 immunoblots. Right, real-time RT-qPCR analysis of the WNT/β-catenin signaling target gene AXIN2. […] Immunoblots show representative data from two or more independent experiments. Actin (cytoplasm) and lamin B1 (nucleus) were used as loading controls. […]

PARP1 = PARP1 (Homo sapiens, UniProt P09874); details: biochemical assay; cited from earlier work
[1] = 28-day oral repeated dose toxicity study; type: in vivo, mice
Description: Body weight and food consumption were measured thrice weekly. For the experiment using 10 mg/kg oral–twice daily dosing, blood was collected at the end of the experiment and hematologic and clinical biochemistry analyses were performed at IDEXX according to their standard protocols. Duodenum, jejunum, ileum, colon–rectum, lymph nodes, pancreas, heart, kidney, liver, spleen, lung, prostate, and testis were collected, formalin-fixed (10%), paraffin-embedded, stained with hematoxylin and eosin (H&E), and imaged as previously described ([39]). Staining of ileums using immunofluorescence was performed as previously described ([29, 39]). […] DAPI nuclear dye [(340 nm), 1 μg/μL, D9542, Sigma Aldrich] was added to the final washing solution. […] Imaging was performed using confocal microscopy as described previously ([39]). All animal experiments were approved by local animal experiment authorities (ethics committee of the Chinese Association for Laboratory Animal Sciences, German Centre for the Protection of Laboratory Animals, and Norwegian Food Safety Authority), and were carried out in compliance with FELASA guidelines and recommendations.

WNT/β-catenin signaling = details: HEK293 cells, mean ± SD; read-out: WNT reporter IC50; cited from earlier work
ABC-1 cells = test: MTS colorimetric cell growth assay, ABC-1; type: cell-based; details: Homo sapiens, ABC-1, 120 h
From the text: as §1, §2

[2] = 10 mg/kg oral twice daily, 28 days, CD-1 mice
[3] = 10 mg/kg oral twice daily, 28 days, CD-1 mice, clinical biochemistry
[4] = 10 mg/kg oral twice daily, 28 days, CD-1 mice, hematology

PARP1, sequence (P09874 whole entry): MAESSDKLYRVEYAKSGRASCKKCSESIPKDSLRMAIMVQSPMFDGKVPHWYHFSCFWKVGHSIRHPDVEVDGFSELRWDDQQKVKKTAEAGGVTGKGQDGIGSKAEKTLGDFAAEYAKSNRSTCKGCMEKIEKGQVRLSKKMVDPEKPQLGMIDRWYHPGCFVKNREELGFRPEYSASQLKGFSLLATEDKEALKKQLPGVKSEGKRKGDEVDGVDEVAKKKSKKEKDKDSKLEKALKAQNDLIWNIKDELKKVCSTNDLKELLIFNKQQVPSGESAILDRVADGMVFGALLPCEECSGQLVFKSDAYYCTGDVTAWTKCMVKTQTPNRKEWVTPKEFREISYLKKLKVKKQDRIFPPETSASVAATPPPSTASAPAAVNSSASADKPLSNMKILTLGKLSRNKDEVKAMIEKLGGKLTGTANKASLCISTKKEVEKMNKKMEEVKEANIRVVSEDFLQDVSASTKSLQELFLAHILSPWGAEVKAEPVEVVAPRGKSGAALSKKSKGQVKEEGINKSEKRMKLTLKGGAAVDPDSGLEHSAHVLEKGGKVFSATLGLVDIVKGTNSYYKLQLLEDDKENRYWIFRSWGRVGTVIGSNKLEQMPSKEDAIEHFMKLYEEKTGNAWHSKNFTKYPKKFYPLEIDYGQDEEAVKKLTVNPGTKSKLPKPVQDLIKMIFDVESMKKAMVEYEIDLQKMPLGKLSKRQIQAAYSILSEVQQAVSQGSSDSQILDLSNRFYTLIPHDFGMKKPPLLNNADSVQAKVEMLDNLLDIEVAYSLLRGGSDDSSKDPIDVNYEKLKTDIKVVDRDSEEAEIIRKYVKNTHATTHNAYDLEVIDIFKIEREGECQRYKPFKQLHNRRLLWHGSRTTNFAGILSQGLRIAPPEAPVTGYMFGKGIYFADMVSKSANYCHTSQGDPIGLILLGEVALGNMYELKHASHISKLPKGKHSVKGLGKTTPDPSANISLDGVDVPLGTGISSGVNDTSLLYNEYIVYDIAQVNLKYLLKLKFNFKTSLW

CCOc1ccc(-c2nnc([C@H]3C[C@H](NC(=O)c4cccc5nccnc45)C3)n2-c2ccccc2F)nc1 [OM-153]
GI50 (OVCAR-4 cells; Homo sapiens, OVCAR-4, 120 h): > 10 nM | GI25 (OVCAR-4 cells; OVCAR-4, 5 days): 2.5 nM | IC50 (PARP1): > 100000 nM | clinical signs, body weight, food consumption [1, 2]: no clinical signs, body weight loss, or reduced food consumption were observed | histopathology of other organs [1, 2]: No atypical histopathologic changes | overall intestinal architecture [1, 2]: intact | expression of the ISC marker and WNT/β-catenin signaling target gene Lgr5 in ileum ([1]; 10 mg/kg oral twice daily, 28 days, CD-1 mice, RNAscope): reduced | AST, ALT and GLDH levels [1, 3]: insignificant alteration | magnesium, potassium, and triglycerides [1, 3]: significant decreases | erythrocytes and hemoglobin [1, 4]: moderate but significant reduction | leukocytes and reticulocytes [1, 4]: tendency toward reduced | histopathology of the other organs ([1]; 100 mg/kg oral twice daily, C57BL/6J mice): No abnormal histopathologic changes | small intestine histopathology ([1]; 100 mg/kg oral twice daily, C57BL/6J mice, 2 out of three mice): loss of villi height, width, crypt, and as well as surface epithelium, accompanied by inflammation | clinical observation and body weight ([1]; 100 mg/kg oral twice daily, C57BL/6J mice, euthanized on day 7): reduced activity and body weight loss in 3 of 4 mice | kidney histopathology ([1]; 100 mg/kg oral twice daily, C57BL/6J mice, same mice as intestinal damage): signs of acute tubular damage in the kidney | IC50 (WNT/β-catenin signaling): 0.63 nM | GI50 (ABC-1 cells): 2 nM
